In patent US9546401B2, “Assays and methods for selecting a treatment regimen for a subject with depression” (The General Hospital Corporation, priority 2011, dated 2017):
Like-named read-outs stand apart in the source and are kept apart here.

Test system: SSRI-resistant outpatients with major depressive disorder (MDD)
Details: for Cardiovascular side effects, NNH / Gastrointestinal side effects, NNH / Infectious side effects, NNH / Miscellaneous side effects, NNH / Psychological side effects, NNH / Sexual side effects, NNH / Sleep side effects, NNH / Somatic side effects, NNH: versus placebo
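Also: adverse events recorded at every visit with the SAFTEE-SI in a 60-day double-blind sequential parallel trial of two 30-day phases, visits every 10 days, placebo as comparator.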

Source text: The study involved the enrollment of a total of 148 patients with MDD over the course of 12 months across 10 medical centers or hospitals in the United States. […] In accordance with the sequential parallel design [51], the 60-day, double-blind treatment was divided into two phases of 30 days each, with assessments performed every 10 days.

Question: Which “adverse side effect when administered with an SSRI” value (Trial 1) does the source give for `CN1c2c(nc(N)[nH]c2=O)NC[C@@H]1CNc1ccc(C(=O)N[C@@H](CCC(=O)O)C(=O)O)cc1` [6(S)-5-MTHF, 6(S)-5-methyltetrahydrofolate] here?
Answer: does not appear to cause any adverse side effect

Question: What about the “Cardiovascular side effects, Frequency” value (Trial 1, 7.5 mg + SSRI, n = 94) of the same molecule?
Answer: 0

Question: And the “Cardiovascular side effects, Frequency (%)” value (Trial 1, 7.5 mg + SSRI, n = 94)?
Answer: (0%)

Question: And the “Gastrointestinal side effects, Frequency” value (Trial 1, 7.5 mg + SSRI, n = 94)?
Answer: 9

Question: What about the “Gastrointestinal side effects, Frequency (%)” value (Trial 1, 7.5 mg + SSRI, n = 94) of the same molecule?
Answer: (9.6%)

Question: What about the “Infectious side effects, Frequency” value (Trial 1, 7.5 mg + SSRI, n = 94) of the same molecule?
Answer: 6

Question: What about the “Infectious side effects, Frequency (%)” value (Trial 1, 7.5 mg + SSRI, n = 94) of the same molecule?
Answer: (6.4%)

Question: And the “Miscellaneous side effects, Frequency” value (Trial 1, 7.5 mg + SSRI, n = 94)?
Answer: 1

Question: What about the “Miscellaneous side effects, Frequency (%)” value (Trial 1, 7.5 mg + SSRI, n = 94) of the same molecule?
Answer: (1.1%)

Question: What about the “Psychological side effects, Frequency” value (Trial 1, 7.5 mg + SSRI, n = 94) of the same molecule?
Answer: 2

Question: What about the “Psychological side effects, Frequency (%)” value (Trial 1, 7.5 mg + SSRI, n = 94) of the same molecule?
Answer: (2.1%)

Question: What about the “Sexual side effects, Frequency” value (Trial 1, 7.5 mg + SSRI, n = 94) of the same molecule?
Answer: 0

Question: And the “Sexual side effects, Frequency (%)” value (Trial 1, 7.5 mg + SSRI, n = 94)?
Answer: (0%)

Question: What about the “Sleep side effects, Frequency” value (Trial 1, 7.5 mg + SSRI, n = 94) of the same molecule?
Answer: 3

Question: And the “Sleep side effects, Frequency (%)” value (Trial 1, 7.5 mg + SSRI, n = 94)?
Answer: (3.2%)

Question: And the “Somatic side effects, Frequency” value (Trial 1, 7.5 mg + SSRI, n = 94)?
Answer: 9

Question: And the “Somatic side effects, Frequency (%)” value (Trial 1, 7.5 mg + SSRI, n = 94)?
Answer: (9.6%)

Question: What about the “Cardiovascular side effects, NNH” value (Trial 1, 7.5 mg + SSRI) of the same molecule?
Answer: <placebo

Question: What about the “Gastrointestinal side effects, NNH” value (Trial 1, 7.5 mg + SSRI) of the same molecule?
Answer: <placebo

Question: What about the “Infectious side effects, NNH” value (Trial 1, 7.5 mg + SSRI) of the same molecule?
Answer: <placebo

Question: What about the “Miscellaneous side effects, NNH” value (Trial 1, 7.5 mg + SSRI) of the same molecule?
Answer: <placebo

Question: What about the “Psychological side effects, NNH” value (Trial 1, 7.5 mg + SSRI) of the same molecule?
Answer: <placebo

Question: And the “Sexual side effects, NNH” value (Trial 1, 7.5 mg + SSRI)?
Answer: =placebo

Question: What about the “Sleep side effects, NNH” value (Trial 1, 7.5 mg + SSRI) of the same molecule?
Answer: <placebo

Question: And the “Somatic side effects, NNH” value (Trial 1, 7.5 mg + SSRI)?
Answer: <placebo

Question: What about the “Cardiovascular side effects, Frequency” value (Trial 1, 15 mg + SSRI, n = 30) of the same molecule?
Answer: 2

Question: And the “Cardiovascular side effects, Frequency (%)” value (Trial 1, 15 mg + SSRI, n = 30)?
Answer: (6.7%)

Question: What about the “Gastrointestinal side effects, Frequency” value (Trial 1, 15 mg + SSRI, n = 30) of the same molecule?
Answer: 3

Question: And the “Gastrointestinal side effects, Frequency (%)” value (Trial 1, 15 mg + SSRI, n = 30)?
Answer: (10.0%)

Question: What about the “Infectious side effects, Frequency” value (Trial 1, 15 mg + SSRI, n = 30) of the same molecule?
Answer: 2

Question: What about the “Infectious side effects, Frequency (%)” value (Trial 1, 15 mg + SSRI, n = 30) of the same molecule?
Answer: (6.7%)

Question: And the “Miscellaneous side effects, Frequency” value (Trial 1, 15 mg + SSRI, n = 30)?
Answer: 2

Question: And the “Miscellaneous side effects, Frequency (%)” value (Trial 1, 15 mg + SSRI, n = 30)?
Answer: (6.7%)

Question: And the “Psychological side effects, Frequency” value (Trial 1, 15 mg + SSRI, n = 30)?
Answer: 2

Question: What about the “Psychological side effects, Frequency (%)” value (Trial 1, 15 mg + SSRI, n = 30) of the same molecule?
Answer: (6.7%)

Question: What about the “Sexual side effects, Frequency” value (Trial 1, 15 mg + SSRI, n = 30) of the same molecule?
Answer: 0

Question: What about the “Sexual side effects, Frequency (%)” value (Trial 1, 15 mg + SSRI, n = 30) of the same molecule?
Answer: (0%)

Question: And the “Sleep side effects, Frequency” value (Trial 1, 15 mg + SSRI, n = 30)?
Answer: 2

Question: And the “Sleep side effects, Frequency (%)” value (Trial 1, 15 mg + SSRI, n = 30)?
Answer: (6.7%)

Question: And the “Somatic side effects, Frequency” value (Trial 1, 15 mg + SSRI, n = 30)?
Answer: 3

Question: And the “Somatic side effects, Frequency (%)” value (Trial 1, 15 mg + SSRI, n = 30)?
Answer: (10.0%)

Question: And the “Cardiovascular side effects, NNH” value (Trial 1, 15 mg + SSRI)?
Answer: <placebo

Question: And the “Gastrointestinal side effects, NNH” value (Trial 1, 15 mg + SSRI)?
Answer: <placebo

Question: And the “Infectious side effects, NNH” value (Trial 1, 15 mg + SSRI)?
Answer: <placebo

Question: What about the “Miscellaneous side effects, NNH” value (Trial 1, 15 mg + SSRI) of the same molecule?
Answer: <placebo

Question: And the “Psychological side effects, NNH” value (Trial 1, 15 mg + SSRI)?
Answer: <placebo

Question: And the “Sexual side effects, NNH” value (Trial 1, 15 mg + SSRI)?
Answer: =placebo

Question: What about the “Sleep side effects, NNH” value (Trial 1, 15 mg + SSRI) of the same molecule?
Answer: <placebo

Question: What about the “Somatic side effects, NNH” value (Trial 1, 15 mg + SSRI) of the same molecule?
Answer: <placebo
